# Patent US9125388B2, “Biological control” (Isis Innovation Limited, priority 1999, dated 2015)
# Key:
# [1] = tested on: Yp3 tTa, tRe Msl-1^Mpu on the 2nd chromosome; experiment: Recombinant chromosome experiments: parents raised on supplement, progeny on normal food, adults by sex (25, 18 or 29° C.); type: in vivo, Drosophila melanogaster
# Procedure: (§1) 40-45 young females and 20-25 young males raised at 25° C. upon food with the indicated tetracycline supplement were allowed to mate, then transferred to normal (tetracycline-free) food after 3-4 days. These flies were transferred to fresh vials of normal food every day for 12 days, then removed on the 13th day. All the vials were incubated at 25° C. while the progeny developed. The numbers of male and female progeny emerging as adults in each vial were recorded.
# Since there is no meiotic recombination in Drosophila melanogaster males, any of these recombinant chromosomes could be used in a genetic sexing or insect control program, if required.
# (§2) A standard range of additive concentrations were used in the following experiments (0.05-20 μg/ml). […] (=“not done”)
# (§3) All the preceding experiments were performed at 25° C., the standard temperature for Drosophila culture. However, the insects in the wild would clearly be exposed to varying temperatures, so we investigated the extent to which the efficiency of the system is affected by temperature. As with the recombinant chromosome experiments, 40-45 young virgin females and 20-25 young males raised at 25° C. upon food with the indicated tetracycline supplement were allowed to mate, then transferred to normal (tetracycline-free) food after 3-4 days. These flies were transferred to fresh vials of normal food every day. The numbers of male and female progeny emerging as adults in each vial were recorded. These experiments were performed at either 18° C. or 29° C.
# [2] = tested on: Yp3 tTa, tRe Ras64B^V12 on the 2nd chromosome; experiment: Recombinant chromosome experiments / maternal transmission of Tc (Table 1): parents raised on supplement, progeny on normal food, adults by sex; type: in vivo, Drosophila melanogaster; settings: for ♀ progeny emerging as adults / ♂ progeny emerging as adults: 25° C.
# Procedure: as §1, §2, §3
# We used a strain of Drosophila in which females, but not males, require Tc for viability.
# A strain homozygous for second chromosome insertions of both Yp3-tTA and tRe-Ras64B^V12 was tested for the effect of parental dietary Tc. 40-45 young females and 20-25 young males raised at 25° C. upon food with the indicated tetracycline supplement were allowed to mate, then transferred to normal (tetracycline-free) food after 3-4 days. These flies were transferred to fresh vials of normal food every day for 12 days, and then removed on the 13th day. All the vials were incubated at 25° C. while the progeny developed. The total numbers of male and female progeny emerging as adults were recorded.
# [3] = parents raised on tetracycline 0.1 μg/ml, 18° C.
# [4] = parents raised on tetracycline 0.1 μg/ml, 29° C.
# [5] = parents raised on tetracycline 1 μg/ml, 18° C.
# [6] = parents raised on tetracycline 1 μg/ml, 29° C.
# [7] = parents raised on tetracycline 5 μg/ml, 18° C.
# [8] = parents raised on tetracycline 5 μg/ml, 29° C.
# [9] = parents raised on Tc 0.1 μg/ml, Day 8 on normal food
# [10] = parents raised on Tc 0.1 μg/ml, Day 9 on normal food
# [11] = parents raised on Tc 0.1 μg/ml, Day 10 on normal food
# [12] = parents raised on Tc 0.1 μg/ml, Day 11 on normal food
# [13] = parents raised on Tc 0.1 μg/ml, Day 12 on normal food
# [14] = parents raised on Tc 0.1 μg/ml, Total of Days 1-12 on normal food
# [15] = parents raised on Tc 1 μg/ml, Day 8 on normal food
# [16] = parents raised on Tc 1 μg/ml, Day 9 on normal food
# [17] = parents raised on Tc 1 μg/ml, Day 10 on normal food
# [18] = parents raised on Tc 1 μg/ml, Day 11 on normal food
# [19] = parents raised on Tc 1 μg/ml, Day 12 on normal food
# [20] = parents raised on Tc 1 μg/ml, Total of Days 1-12 on normal food
# [21] = parents raised on Tc 5 μg/ml, Day 8 on normal food
# [22] = parents raised on Tc 5 μg/ml, Total of Days 1-12 on normal food
# [23] = parents raised on Tc 20 μg/ml, Day 1 on normal food
# [24] = parents raised on Tc 20 μg/ml, Day 2 on normal food
# [25] = parents raised on Tc 20 μg/ml, Day 3 on normal food
# [26] = parents raised on Tc 20 μg/ml, Day 4 on normal food
# [27] = parents raised on Tc 20 μg/ml, Day 5 on normal food
# [28] = parents raised on Tc 20 μg/ml, Day 6 on normal food
# [29] = parents raised on Tc 20 μg/ml, Day 7 on normal food
# [30] = parents raised on Tc 100 μg/ml, Day 1 on normal food
# [31] = parents raised on Tc 100 μg/ml, Day 2 on normal food
# [32] = parents raised on Tc 100 μg/ml, Day 3 on normal food
# [33] = parents raised on Tc 100 μg/ml, Day 4 on normal food
# [34] = parents raised on Tc 100 μg/ml, Day 5 on normal food
# [35] = parents raised on Tc 100 μg/ml, Day 6 on normal food
# [36] = parents raised on Tc 100 μg/ml, Day 7 on normal food
# [37] = parents raised on Tc 500 μg/ml, Day 1 on normal food
# [38] = parents raised on Tc 500 μg/ml, Day 2 on normal food
# [39] = parents raised on Tc 500 μg/ml, Day 3 on normal food
# [40] = parents raised on Tc 500 μg/ml, Day 4 on normal food
# [41] = parents raised on Tc 500 μg/ml, Day 5 on normal food
# [42] = parents raised on Tc 500 μg/ml, Day 6 on normal food
# [43] = parents raised on Tc 500 μg/ml, Day 7 on normal food
# [44] = parents raised on Tc 1000 μg/ml, Day 1 on normal food
# [45] = parents raised on Tc 1000 μg/ml, Day 2 on normal food
# [46] = parents raised on Tc 1000 μg/ml, Day 3 on normal food
# [47] = parents raised on Tc 1000 μg/ml, Day 4 on normal food
# [48] = parents raised on Tc 1000 μg/ml, Day 5 on normal food
# [49] = parents raised on Tc 1000 μg/ml, Day 6 on normal food
# [50] = parents raised on Tc 1000 μg/ml, Day 7 on normal food
# [51] = parents raised on Tc 2000 μg/ml, Day 1 on normal food
# [52] = parents raised on Tc 2000 μg/ml, Day 2 on normal food
# [53] = parents raised on Tc 2000 μg/ml, Day 3 on normal food
# [54] = parents raised on Tc 2000 μg/ml, Day 4 on normal food
# [55] = parents raised on Tc 2000 μg/ml, Day 5 on normal food
# [56] = parents raised on Tc 2000 μg/ml, Day 6 on normal food
# [57] = parents raised on Tc 2000 μg/ml, Day 7 on normal food
smiles,measurement,setting,value
"CN(C)[C@@H]1C(O)=C(C(N)=O)C(=O)[C@@]2(O)C(O)=C3C(=O)c4c(O)cccc4[C@@](C)(O)[C@H]3C[C@@H]12 [Tetracycline, tetracycline]",escapers,[1]; even at low (parental) tetracycline concentrations,< 1%
same,Female progeny emerging as adults,[1]; [3],5
same,Male progeny emerging as adults,[1]; [3],1303
same,Female progeny emerging as adults,[1]; [4],0
same,Male progeny emerging as adults,[1]; [4],799
same,Female progeny emerging as adults,[1]; [5],14
same,Male progeny emerging as adults,[1]; [5],1218
same,Female progeny emerging as adults,[1]; [6],0
same,Male progeny emerging as adults,[1]; [6],749
same,Female progeny emerging as adults,[1]; [7],7
same,Male progeny emerging as adults,[1]; [7],1386
same,Female progeny emerging as adults,[1]; [8],0
same,Male progeny emerging as adults,[1]; [8],744
same,♀ progeny emerging as adults,[2]; [9],0
same,♂ progeny emerging as adults,[2]; [9],105
same,♀ progeny emerging as adults,[2]; [10],0
same,♂ progeny emerging as adults,[2]; [10],133
same,♀ progeny emerging as adults,[2]; [11],0
same,♂ progeny emerging as adults,[2]; [11],93
same,♀ progeny emerging as adults,[2]; [12],0
same,♂ progeny emerging as adults,[2]; [12],131
same,♀ progeny emerging as adults,[2]; [13],0
same,♂ progeny emerging as adults,[2]; [13],121
same,♀ progeny emerging as adults,[2]; [14],0
same,♂ progeny emerging as adults,[2]; [14],1363
same,♀ progeny emerging as adults,[2]; [15],0
same,♂ progeny emerging as adults,[2]; [15],90
same,♀ progeny emerging as adults,[2]; [16],0
same,♂ progeny emerging as adults,[2]; [16],119
same,♀ progeny emerging as adults,[2]; [17],0
same,♂ progeny emerging as adults,[2]; [17],94
same,♀ progeny emerging as adults,[2]; [18],0
same,♂ progeny emerging as adults,[2]; [18],98
same,♀ progeny emerging as adults,[2]; [19],0
same,♂ progeny emerging as adults,[2]; [19],100
same,♀ progeny emerging as adults,[2]; [20],0
same,♂ progeny emerging as adults,[2]; [20],1360
same,♀ progeny emerging as adults,[2]; [21],0
same,♂ progeny emerging as adults,[2]; [21],119
same,♂ progeny emerging as adults,"[2]; parents raised on Tc 5 μg/ml, Day 9 on normal food",96
same,♀ progeny emerging as adults,"[2]; parents raised on Tc 5 μg/ml, Day 12 on normal food",0
same,♀ progeny emerging as adults,[2]; [22],0
same,♂ progeny emerging as adults,[2]; [22],1384
same,♀ progeny emerging as adults,[2]; [23],0
same,♂ progeny emerging as adults,[2]; [23],89
same,♀ progeny emerging as adults,[2]; [24],0
same,♂ progeny emerging as adults,[2]; [24],107
same,♀ progeny emerging as adults,[2]; [25],0
same,♂ progeny emerging as adults,[2]; [25],107
same,♀ progeny emerging as adults,[2]; [26],0
same,♂ progeny emerging as adults,[2]; [26],98
same,♀ progeny emerging as adults,[2]; [27],0
same,♂ progeny emerging as adults,[2]; [27],88
same,♀ progeny emerging as adults,[2]; [28],0
same,♂ progeny emerging as adults,[2]; [28],102
same,♀ progeny emerging as adults,[2]; [29],0
same,♂ progeny emerging as adults,[2]; [29],107
same,♀ progeny emerging as adults,[2]; [30],0
same,♂ progeny emerging as adults,[2]; [30],129
same,♀ progeny emerging as adults,[2]; [31],0
same,♂ progeny emerging as adults,[2]; [31],136
same,♀ progeny emerging as adults,[2]; [32],0
same,♂ progeny emerging as adults,[2]; [32],128
same,♀ progeny emerging as adults,[2]; [33],0
same,♂ progeny emerging as adults,[2]; [33],127
same,♀ progeny emerging as adults,[2]; [34],0
same,♂ progeny emerging as adults,[2]; [34],135
same,♀ progeny emerging as adults,[2]; [35],0
same,♂ progeny emerging as adults,[2]; [35],144
same,♀ progeny emerging as adults,[2]; [36],0
same,♂ progeny emerging as adults,[2]; [36],107
same,♀ progeny emerging as adults,[2]; [37],2
same,♂ progeny emerging as adults,[2]; [37],136
same,♀ progeny emerging as adults,[2]; [38],0
same,♂ progeny emerging as adults,[2]; [38],88
same,♀ progeny emerging as adults,[2]; [39],0
same,♂ progeny emerging as adults,[2]; [39],113
same,♀ progeny emerging as adults,[2]; [40],0
same,♂ progeny emerging as adults,[2]; [40],113
same,♀ progeny emerging as adults,[2]; [41],0
same,♂ progeny emerging as adults,[2]; [41],87
same,♀ progeny emerging as adults,[2]; [42],0
same,♂ progeny emerging as adults,[2]; [42],94
same,♀ progeny emerging as adults,[2]; [43],0
same,♂ progeny emerging as adults,[2]; [43],109
same,♀ progeny emerging as adults,[2]; [44],13
same,♂ progeny emerging as adults,[2]; [44],107
same,♀ progeny emerging as adults,[2]; [45],5
same,♂ progeny emerging as adults,[2]; [45],140
same,♀ progeny emerging as adults,[2]; [46],0
same,♂ progeny emerging as adults,[2]; [46],110
same,♀ progeny emerging as adults,[2]; [47],0
same,♂ progeny emerging as adults,[2]; [47],141
same,♀ progeny emerging as adults,[2]; [48],0
same,♂ progeny emerging as adults,[2]; [48],98
same,♀ progeny emerging as adults,[2]; [49],0
same,♂ progeny emerging as adults,[2]; [49],129
same,♀ progeny emerging as adults,[2]; [50],0
same,♂ progeny emerging as adults,[2]; [50],88
same,♀ progeny emerging as adults,[2]; [51],32
same,♂ progeny emerging as adults,[2]; [51],119
same,♀ progeny emerging as adults,[2]; [52],15
same,♂ progeny emerging as adults,[2]; [52],102
same,♀ progeny emerging as adults,[2]; [53],12
same,♂ progeny emerging as adults,[2]; [53],107
same,♀ progeny emerging as adults,[2]; [54],9
same,♂ progeny emerging as adults,[2]; [54],109
same,♀ progeny emerging as adults,[2]; [55],8
same,♂ progeny emerging as adults,[2]; [55],109
same,♀ progeny emerging as adults,[2]; [56],2
same,♂ progeny emerging as adults,[2]; [56],140
same,♀ progeny emerging as adults,[2]; [57],0
same,♂ progeny emerging as adults,[2]; [57],127
same,Female progeny emerging as adults,[2]; [3],2
same,Male progeny emerging as adults,[2]; [3],1190
same,Female progeny emerging as adults,[2]; [4],0
same,Male progeny emerging as adults,[2]; [4],718
same,Female progeny emerging as adults,[2]; [5],4
same,Male progeny emerging as adults,[2]; [5],1213
same,Female progeny emerging as adults,[2]; [6],0
same,Male progeny emerging as adults,[2]; [6],753
same,Female progeny emerging as adults,[2]; [7],0
same,Male progeny emerging as adults,[2]; [7],1058
same,Female progeny emerging as adults,[2]; [8],0
same,Male progeny emerging as adults,[2]; [8],757
same,parental food concentration leading to survival of a small proportion of female progeny,[2]; progeny on media lacking Tc,≥ 500 µg/mL
same,"food concentration sufficient to suppress expression of the toxic gene, allowing both males and females to survive",[2]; strain grown on supplemented food,0.1 µg/mL
